The values below are quoted from earlier work in article PMC5117885 (Drug Design, Development and Therapy, 2016).

For series [1] the following is noted: phase 3 ACCELERATE trial.
Experiment in series [2]: not given
The source holds these as a separate data set.

With `CCC(CC)CC1(C(=O)Nc2ccccc2SC(=O)C(C)C)CCCCC1` [Dalcetrapib], the “Effect on HDL-C levels” value is “increased HDL-C levels” and the “Reduction of cardiovascular events compared to placebo group” value was “did not demonstrate a significant reduction of cardiovascular events”.

For `Cc1cc(C)c2c(c1)[C@@H](N(Cc1cc(C(F)(F)F)cc(C(F)(F)F)c1)c1nnn(C)n1)CCCN2C[C@H]1CC[C@H](C(=O)O)CC1` [Evacetrapib], the Efficacy result in series [1] is listed as “did not improve the efficacy”.

Turning to `CCOC(=O)N1c2ccc(C(F)(F)F)cc2[C@@H](N(Cc2cc(C(F)(F)F)cc(C(F)(F)F)c2)C(=O)OC)C[C@H]1CC` [Torcetrapib], in series [2], the “Effect on blood pressure and aldosterone” value is recorded as “Elevation of BP caused by torcetrapib was associated with a substantial increase of aldosterone”. Further, the “Effect on HDL-C and LDL-C” value in series [2] (ILLUMINATE trial) was “HDL-C increase and LDL-C decrease”. Further, the “Risk of death and cardiac events” value in series [2] (ILLUMINATE trial, patients receiving torcetrapib) is “significantly increased risk of death and cardiac events”.
